Results reported in patent US12371429B2, “Antibiotic resistance-modifying tricyclic heteroaryl compounds and uses thereof” (Recreo Pharmaceuticals LLC, priority 2018, dated 2025).
Converted amounts (≈) assume the structure as drawn. Like-named read-outs stand apart in the source and are kept apart here.

Experiments:
[1] = test system: Staphylococcus aureus (MRSA, NRS384); experiment: MIC determination, broth microdilution; type: cell-based
From the text: (§1) Bacterial strains representing pathogenic species of clinical concern, the so called ESKAPE pathogens, were selected for MIC studies using compounds A and B. The results are shown in Table A. These species are from the families or genera Enterococcus, Staphylococcus, Klebsiella, Acinetobacter, Pseudomonas, and Enterobacteriaceae. Specifically, Enterococcus faecium HM-204 and HM-460, Staphylococcus aureus strains NRS384 and COL, Klebsiella pneumoniae strains NR-48976 and NR-48977, Acinetobacter baumannii strains NR-17783 and NR-19299, Pseudomonas aeruginosa strain NR-48982 and Salmonella enterica strains NR-22067 and NR-22068 were purchased from BEI resources. Escherichia coli strain ATCC 25922, and the Staphylococcus aureus (S. aureus) strains ATCC 25923 (MSSA) and ATCC BAA-44 (MRSA) were purchased from the American Type Culture Collection (ATCC).
(§2) General Procedure for Minimal inhibitory concentration (MIC) determination. The minimal inhibitory concentrations (MICS) of antimicrobial compounds A, B, and C were determined by the broth microdilution method detailed in the Clinical and Laboratory Standards Institute handbook (Cockerill and Clinical and Laboratory Standards Institute, Methods for Dilution Antimicrobial Susceptibility Tests for Bacteria That Grow Aerobically). All antimicrobial compounds were purchased from Sigma-Aldrich. The growth media used for all MIC experiments, except those for Enterococcus faecium, was Mueller Hinton Broth (MHB) purchased from HIMEDIA through VWR (cat: 95039-356). For experiments using Enterococcus faecium, the growth and susceptibility medium was BD Bacto™ Brain Heart Infusion (BHI) Broth purchased from VWR (cat: 90003-040). USA Scientific CytoOne 96-well Clear Tissue Culture assay plates (cat: CC7682-7596) were used for all MIC and MRC experiments. MIC assay plates were prepared by diluting the antibiotic to be tested in a 2-fold series down the assay plate. A total of 8 concentrations of each compound were tested in triplicate. Compounds were prepared in 180 μL at 2× the intended final concentrations in MHB or BHI and 2% DMSO.
(§3) The bacterial inoculum was prepared by selecting 5-7 colonies from an agar plate to make a day culture in BHI of the bacterial species to be assayed. This was grown at 37° C. for 2-4 hours. After having reached the mid-logarithmic growth phase (OD600 0.15-0.4), the day culture was diluted in the appropriate assay medium (MHB or BHI) to OD600 0.002. 100 μL of this inoculum was added to each experimental well of the 96-well assay plate resulting in an additional two-fold dilution of the bacterial culture and an initial OD600 of 0.001 in the assay plate, a final volume of 200 μL and the intended compound concentrations in 1% DMSO. MIC assay plates were then incubated at 37° C. with shaking for 18 hours.
(§4) The MICs were determined as defined in the Clinical and Laboratory Standards Institute handbook. After overnight growth, Plates were read by eye and 600 nm absorbance read using a BioTek Epoch2 Microplate Spectrophotometer (BioTek).

MRSA strain BAA-44 [2] = experiment: MIC determination, broth microdilution; type: cell-based, Staphylococcus aureus
From the text: as §1, §2, §3, §4

MRSA strain BAA-44 [3] = experiment: Antibiotic MICs in the presence of Compound C; type: cell-based, Staphylococcus aureus; settings: MRSA BAA-44; in the presence of 5 mg/L Compound C
Method: as §2, §3, §4
(§5) Determination of Antibiotic MICs in the Presence of Compound C against MRSA and MSSA. Methicillin-resistant S. aureus (MRSA) strain ATCC BAA-44 and the methicillin-sensitive S. aureus (MSSA) strain ATCC 25923 were used to determine the MIC values of various antimicrobial compounds in the presence of 5 μg/mL Compound C. […] The test antibiotics were then diluted into assay plates as described earlier. The final concentration of Compound C after inoculation with BAA-44 was 5 μg/mL. MIC values were determined by the methods described above.

MRSA strain NRS-384 [4] = experiment: Antibiotic MICs in the presence of Compound C; type: cell-based, Staphylococcus aureus; settings: MRSA NRS-384; in the presence of 5 mg/L Compound C
Method: [The source words this procedure for another variant and reports this variant under the same test.] as §2, §3, §4, §5

MRSA strain ATCC 700789 [5] = experiment: MIC determination, broth microdilution; type: cell-based, Staphylococcus aureus; settings: MRSA strain ATCC 700789 (Table C)
Method: as §2, with “Compounds were prepared in 180 μL at 2× the intended final concentrations in MHB or BHI and 2% DMSO.” left out
as §4

MRSA strain ATCC-33592 [6] = experiment: MIC determination, broth microdilution; type: cell-based, Staphylococcus aureus; settings: MRSA strain ATCC-33592 (Table C)
Method: as §2, with “Compounds were prepared in 180 μL at 2× the intended final concentrations in MHB or BHI and 2% DMSO.” left out
as §4

MRSA strain ATCC 700789 [7] = experiment: Minimal re-sensitizing concentration (MRC) determination; type: cell-based, Staphylococcus aureus
Method: (§6) Minimal re-sensitizing concentration (MRC) determination. Antibiotic MIC breakpoint values where S. aureus is considered susceptible were determined from the CLSI handbook supplement. MHB was supplemented with the antibiotic at a concentration two-fold greater than the CLSI susceptible MIC value. Two-fold serial dilutions of Compound C were prepared in antibiotic supplemented media in 96-well microplates. These were inoculated with MRSA diluted to OD600 0.002 and incubated at 37° C. with shaking for 18 hours before results were interpreted. The concentration of […] in antibiotic supplemented media at which there was no observable growth was considered the minimum re-sensitizing concentration (MRC).

MRSA strain ATCC-33592 [8] = experiment: as above; type: cell-based, Staphylococcus aureus
Method: as §6

MRSA strain BAA-44 [9] = experiment: as above; type: cell-based, Staphylococcus aureus
Method: as §6

MRSA strain NRS-384 [10] = experiment: as above; type: cell-based, Staphylococcus aureus
Method: as §6

[11] = Staphylococcus aureus, MRSA NRS-384, in the absence of Compound C, read-out: MIC mg/L (NRS-384)
[12] = Staphylococcus aureus, MRSA BAA-44, in the absence of Compound C, read-out: MIC mg/L (BAA-44)
[13] = medium supplemented with amox/clav
[14] = medium supplemented with cefazolin

MIC [1, 11]	MIC (MRSA strain BAA-44 [2]; [12])	MIC (BAA-44) (+5 mg/L Compound C) (MRSA strain BAA-44 [3])	MIC (NRS-384) (+5 mg/L Compound C) (MRSA strain NRS-384 [4])	Compound	further results
64 mg/L (≈ 141 µM)	128 mg/L (≈ 282 µM)	<2 µg/mL	<2 µg/mL	Cc1nnc(SCC2=C(C(=O)O)N3C(=O)[C@@H](NC(=O)Cn4cnnn4)[C@H]3SC2)s1 [Cefazolin, reference compound]	–
< 0.0312 mg/L	1 mg/L (≈ 1.22 µM)	–	<0.03125 µg/mL	CO[C@H]1/C=C/O[C@@]2(C)Oc3c(C)c(O)c4c(O)c(c(/C=N/N5CCN(C)CC5)c(O)c4c3C2=O)NC(=O)/C(C)=C\C=C\[C@H](C)[C@H](O)[C@@H](C)[C@@H](O)[C@@H](C)[C@H](OC(C)=O)[C@@H]1C [Rifampicin]	–
0.125 mg/L (≈ 0.294 µM)	> 4 mg/L	>4 µg/mL	<0.03125 µg/mL	CCC[C@@H]1C[C@@H](C(=O)N[C@@H]([C@H]2O[C@H](SC)[C@H](O)[C@@H](O)[C@H]2O)[C@H](C)Cl)N(C)C1 [Clindamycin]	–
2 mg/L (≈ 5.93 µM)	1 mg/L (≈ 2.96 µM)	0.5 µg/mL	1 µg/mL	CC(=O)NC[C@H]1CN(c2ccc(N3CCOCC3)c(F)c2)C(=O)O1 [Linezolid]	–
256 mg/L (≈ 673 µM)	> 256 mg/L	4 µg/mL	8 µg/mL	COc1cccc(OC)c1C(=O)N[C@@H]1C(=O)N2[C@@H]1SC(C)(C)[C@@H]2C(=O)O [Methicillin, reference compound]	–
8 mg/L (≈ 13.8 µM)	> 32 mg/L	>32 µg/mL	1 µg/mL	[H]/N=C(/N)N[C@H]1[C@H](O)[C@@H](O)[C@H](O[C@@H]2O[C@@H](C)[C@](O)(C=O)[C@H]2O[C@@H]2O[C@@H](CO)[C@H](O)[C@@H](O)[C@@H]2NC)[C@@H](N/C(N)=N\[H])[C@@H]1O [Streptomycin]	–
> 100 mg/L	> 100 mg/L	–	–	O=C(c1ccc(Cl)cc1)N1CCc2c([nH]c3ccc(Cl)cc23)C1 [Compound C]	MIC ([1]; MRSA strain NRS-384 (Table C)): > 64 mg/L; MIC (MRSA strain BAA-44 [2]; MRSA strain BAA-44 (Table C)): 64 mg/L (≈ 185 µM); MIC (MRSA strain ATCC 700789 [5]): > 64 µg/mL; MIC (MRSA strain ATCC-33592 [6]): 4 µg/mL (≈ 11.6 µM); MRC to Amox/clav (MRSA strain ATCC 700789 [7]; [13]): 4; MRC to Cefazolin (MRSA strain ATCC 700789 [7]; [14]): 4; MRC to Amox/clav (MRSA strain ATCC-33592 [8]; [13]): 2; MRC to Cefazolin (MRSA strain ATCC-33592 [8]; [14]): 2; MRC to Amox/clav (MRSA strain BAA-44 [9]; medium supplemented with amox/clav at two-fold greater than the CLSI susceptible MIC): 4; MRC to Cefazolin (MRSA strain BAA-44 [9]; medium supplemented with cefazolin at two-fold greater than the CLSI susceptible MIC): 4; MRC to Amox/clav (MRSA strain NRS-384 [10]; [13]): 2; MRC to Cefazolin (MRSA strain NRS-384 [10]; [14]): 4
8 mg/L (≈ 20.9 µM)	16 mg/L (≈ 41.7 µM)	<0.25 µg/mL	<0.25 µg/mL	C[C@@H](O)[C@H]1C(=O)N2C(C(=O)O)=C(S[C@@H]3CN[C@H](C(=O)N(C)C)C3)[C@H](C)[C@H]12 [Meropenem, reference compound]	–

Compound	MIC [1, 11]	MIC (MRSA strain BAA-44 [2]; [12])	MIC (BAA-44) (+5 mg/L Compound C) (MRSA strain BAA-44 [3])	MIC (NRS-384) (+5 mg/L Compound C) (MRSA strain NRS-384 [4])	further results
Cc1onc(-c2ccccc2)c1C(=O)N[C@@H]1C(=O)N2[C@@H]1SC(C)(C)[C@@H]2C(=O)O [Oxacillin, reference compound]	64 mg/L (≈ 159 µM)	64 mg/L (≈ 159 µM)	<2 µg/mL	<2 µg/mL	–
CN[C@H](CC(C)C)C(=O)N[C@H]1C(=O)N[C@@H](CC(N)=O)C(=O)N[C@H]2C(=O)N[C@H]3C(=O)N[C@H](C(=O)N[C@H](C(=O)O)c4cc(O)cc(O)c4-c4cc3ccc4O)[C@H](O)c3ccc(c(Cl)c3)Oc3cc2cc(c3O[C@@H]2O[C@H](CO)[C@@H](O)[C@H](O)[C@H]2O[C@H]2C[C@](C)(N)[C@H](O)[C@H](C)O2)Oc2ccc(cc2Cl)[C@H]1O [Vancomycin]	–	–	0.5 µg/mL	0.5 µg/mL	MIC ([1]; Staphylococcus aureus, read-out: MIC mg/L (NRS-384)): 1 mg/L (≈ 0.69 µM); MIC (MRSA strain BAA-44 [2]; Staphylococcus aureus, read-out: MIC mg/L (BAA-44)): 1 mg/L (≈ 0.69 µM)
CN(C)[C@@H]1C(O)=C(C(N)=O)C(=O)[C@@]2(O)C(O)=C3C(=O)c4c(O)cccc4[C@@](C)(O)[C@H]3C[C@@H]12 [Tetracycline]	8 mg/L (≈ 18 µM)	16 mg/L (≈ 36 µM)	4 µg/mL	4 µg/mL	–
